28 molecules from patent US20260184693A1, “INHIBITORS OF SOLUTE CARRIER FAMILY 6A MEMBER 19 (SLC6A19) AND METHODS OF USE THEREOF” (Maze Therapeutics, Inc., priority 2022, published 2026) can be followed below.

Each structure is given as a SMILES string.

The test has as its target T1, human SLC6A19 (Homo sapiens, UniProt Q695T7).
T1 construct: expressed in transfected cells
T1 sequence (Q695T7 1-634): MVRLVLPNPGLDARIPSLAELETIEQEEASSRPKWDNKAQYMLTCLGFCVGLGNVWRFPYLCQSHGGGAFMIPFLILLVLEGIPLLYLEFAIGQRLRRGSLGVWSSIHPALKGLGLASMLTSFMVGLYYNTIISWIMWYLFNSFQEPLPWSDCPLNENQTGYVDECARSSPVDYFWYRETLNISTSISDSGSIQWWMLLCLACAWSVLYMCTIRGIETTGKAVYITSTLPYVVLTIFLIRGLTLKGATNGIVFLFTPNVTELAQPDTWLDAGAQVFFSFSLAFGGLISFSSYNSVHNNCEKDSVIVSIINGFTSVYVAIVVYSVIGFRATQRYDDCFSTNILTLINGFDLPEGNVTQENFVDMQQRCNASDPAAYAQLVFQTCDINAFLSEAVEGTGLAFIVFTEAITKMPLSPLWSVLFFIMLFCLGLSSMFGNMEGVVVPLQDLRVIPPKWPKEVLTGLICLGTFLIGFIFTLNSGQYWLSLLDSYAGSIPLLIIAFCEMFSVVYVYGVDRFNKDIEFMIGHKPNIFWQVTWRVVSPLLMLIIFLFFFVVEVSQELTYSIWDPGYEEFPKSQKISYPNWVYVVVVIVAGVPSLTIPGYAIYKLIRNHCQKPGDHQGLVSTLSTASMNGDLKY
T1 sequence (Q9HBJ8 15-222 partner): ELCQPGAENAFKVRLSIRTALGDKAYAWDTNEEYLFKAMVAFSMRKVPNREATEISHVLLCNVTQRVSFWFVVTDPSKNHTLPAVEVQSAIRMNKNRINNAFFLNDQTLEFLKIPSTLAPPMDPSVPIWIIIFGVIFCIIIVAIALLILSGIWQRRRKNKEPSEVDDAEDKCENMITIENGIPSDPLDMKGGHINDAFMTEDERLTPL
As to the kind of experiment: Example B2: 13C6,15N-isoleucine uptake, RapidFire mass spectrometry, in CHO cells with doxycycline-inducible expression of human SLC6A19 and TMEM27. Format: cell-based. As to conditions: read-out: SLC6A19_RapidFire Uptake Assay IC50. In outline:
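Labelled isoleucine (13C6,15N; 2 mM added) was given 20 min at 37 °C, following a 20-min compound pre-treatment (10-point 2-fold series, duplicate). Cells were doxycycline-induced CHO co-expressing human SLC6A19 and TMEM27. Intracellular label was quantified by RapidFire-MS peak areas against a 13C-leucine standard.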
`CN(C(=O)NCc1cc2cc(Cl)ccc2[nH]1)[C@@H]1CCCN(C(=O)CCNC(N)=O)C1` [Compound 73, (R)-3-((5-chloro-1H-indol-2-yl)methyl)-1-methyl-1-(1-(3-ureidopropanoyl)piperidin-3-yl)urea]: the IC50 (usually the concentration that gives 50% inhibition) turned out to be 0.897 µM.

For `CN(C(=O)NCc1cc2cc(Cl)ccc2[nH]1)[C@@H]1CCCN(C(=O)c2cccn3cnnc23)C1` [Compound 74, (R)-1-(1-([1,2,4]triazolo[4,3-a]pyridine-8-carbonyl)piperidin-3-yl)-3-((5-chloro-1H-indol-2-yl)methyl)-1-methylurea], the half-maximal inhibitory concentration (IC50) stood at 2.54 µM.

Take `CN(C(=O)NCc1cc2cc(Cl)ccc2[nH]1)[C@@H]1CCCN(C(=O)C2CCC(=O)C2)C1` (stereo partly drawn) [Compound 75, 3-((5-chloro-1H-indol-2-yl)methyl)-1-methyl-1-((3R)-1-(3-oxocyclopentane-1-carbonyl)piperidin-3-yl)urea]: the half-inhibitory concentration (IC50) is 1.75 µM.

As to `CN(C(=O)NCc1cc2cc(Cl)ccc2[nH]1)[C@@H]1CCCN(C(=O)c2ccn3ccnc3c2)C1` [Compound 76, (R)-3-((5-chloro-1H-indol-2-yl)methyl)-1-(1-(imidazo[1,2-a]pyridine-7-carbonyl)piperidin-3-yl)-1-methylurea], the IC50 was 1 µM.

For the molecule `Cc1cc(C(=O)N2CCC[C@@H](N(C)C(=O)NCc3cc4cc(Cl)ccc4[nH]3)C2)n(C)n1` [Compound 77, (R)-3-((5-chloro-1H-indol-2-yl)methyl)-1-(1-(1,3-dimethyl-1H-pyrazole-5-carbonyl)piperidin-3-yl)-1-methylurea], the IC50 turned out to be 6.57 µM.

For the molecule `COc1ccc(C(=O)N2CCC[C@@H](N(C)C(=O)NCc3cc4cc(Cl)ccc4[nH]3)C2)nc1` [Compound 78, (R)-3-((5-chloro-1H-indol-2-yl)methyl)-1-(1-(5-methoxypicolinoyl)piperidin-3-yl)-1-methylurea], the IC50 was found to be 1.76 µM.

As for `COC(C)(C)C(=O)N1CCC[C@@H](N(C)C(=O)NCc2cc3cc(Cl)ccc3[nH]2)C1` [Compound 79, (R)-3-((5-chloro-1H-indol-2-yl)methyl)-1-(1-(2-methoxy-2-methylpropanoyl)piperidin-3-yl)-1-methylurea], the IC50 stood at 5.63 µM.

Take `CN(C(=O)NCc1cc2cc(Cl)ccc2[nH]1)[C@@H]1CCCN(C(=O)CC(C)(C)O)C1` [Compound 80, (R)-3-((5-chloro-1H-indol-2-yl)methyl)-1-(1-(3-hydroxy-3-methylbutanoyl)piperidin-3-yl)-1-methylurea]: the half-inhibitory concentration (IC50) is 5.65 µM.

As for `CN(C(=O)NCc1cc2cc(Cl)ccc2[nH]1)[C@@H]1CCCN(C(=O)Cn2ccccc2=O)C1` [Compound 81, (R)-3-((5-chloro-1H-indol-2-yl)methyl)-1-methyl-1-(1-(2-(2-oxopyridin-1(2H)-yl)acetyl)piperidin-3-yl)urea], the half-inhibitory concentration (IC50) was 1.41 µM.

As to `COCC(C)C(=O)N1CCC[C@@H](N(C)C(=O)NCc2cc3cc(Cl)ccc3[nH]2)C1` (stereo partly drawn) [Compound 82, 3-((5-chloro-1H-indol-2-yl)methyl)-1-((3R)-1-(3-methoxy-2-methylpropanoyl)piperidin-3-yl)-1-methylurea], the IC50 amounted to 3.81 µM.

As for `CN(C(=O)NCc1cc2cc(Cl)ccc2[nH]1)[C@@H]1CCCN(C(=O)COc2ccc(=O)[nH]n2)C1` [Compound 83, (R)-3-((5-chloro-1H-indol-2-yl)methyl)-1-methyl-1-(1-(2-((6-oxo-1,6-dihydropyridazin-3-yl)oxy)acetyl)piperidin-3-yl)urea], the IC50 amounted to 4.79 µM.

Turning to `CN(C(=O)NCc1cc2cc(Cl)ccc2[nH]1)[C@@H]1CCCN(C(=O)C2CCCC2)C1` [Compound 84, (R)-3-((5-chloro-1H-indol-2-yl)methyl)-1-(1-(cyclopentanecarbonyl)piperidin-3-yl)-1-methylurea], the half-inhibitory concentration (IC50) came to 0.176 µM.

As for `Cc1ccn(CC(=O)N2CCC[C@@H](N(C)C(=O)NCc3cc4cc(Cl)ccc4[nH]3)C2)n1` [Compound 85, (R)-3-((5-chloro-1H-indol-2-yl)methyl)-1-methyl-1-(1-(2-(3-methyl-1H-pyrazol-1-yl)acetyl)piperidin-3-yl)urea], the IC50 is 0.369 µM.

With `CN(C(=O)NCc1cc2cc(Cl)ccc2[nH]1)[C@@H]1CCCN(C(=O)Cc2cnn(C)c2)C1` [Compound 86, (R)-3-((5-chloro-1H-indol-2-yl)methyl)-1-methyl-1-(1-(2-(1-methyl-1H-pyrazol-4-yl)acetyl)piperidin-3-yl)urea], the 50% inhibitory concentration (IC50) is 0.559 µM.

Turning to `COc1ncc(C(=O)N2CCC[C@@H](N(C)C(=O)NCc3cc4cc(Cl)ccc4[nH]3)C2)cc1F` [Compound 87, (R)-3-((5-chloro-1H-indol-2-yl)methyl)-1-(1-(5-fluoro-6-methoxynicotinoyl)piperidin-3-yl)-1-methylurea], the concentration for half-maximal inhibition (IC50) worked out at 1.67 µM.

For `CC(=O)NC(C)C(=O)N1CCC[C@@H](N(C)C(=O)NCc2cc3cc(Cl)ccc3[nH]2)C1` (stereo partly drawn) [Compound 88, N-(1-((R)-3-(3-((5-chloro-1H-indol-2-yl)methyl)-1-methylureido)piperidin-1-yl)-1-oxopropan-2-yl)acetamide], the 50% inhibitory concentration (IC50) was determined as 4.08 µM.

As to `CC(=O)NCCC(=O)N1CCC[C@@H](N(C)C(=O)NCc2cc3cc(Cl)ccc3[nH]2)C1` [Compound 89, (R)-N-(3-(3-(3-((5-chloro-1H-indol-2-yl)methyl)-1-methylureido)piperidin-1-yl)-3-oxopropyl)acetamide], the IC50 amounted to 1.08 µM.

On to `COCc1oncc1C(=O)N1CCC[C@@H](N(C)C(=O)NCc2cc3cc(Cl)ccc3[nH]2)C1` [Compound 90, (R)-3-((5-chloro-1H-indol-2-yl)methyl)-1-(1-(5-(methoxymethyl)isoxazole-4-carbonyl)piperidin-3-yl)-1-methylurea], for which the IC50 came out at 13.5 µM.

With `CN(C(=O)NCc1cc2cc(Cl)ccc2[nH]1)[C@@H]1CCCN(C(=O)CCn2cccn2)C1` [Compound 91, (R)-1-(1-(3-(1H-pyrazol-1-yl)propanoyl)piperidin-3-yl)-3-((5-chloro-1H-indol-2-yl)methyl)-1-methylurea], the 50% inhibitory concentration (IC50) worked out at 1.81 µM.

With `COCC1(C(=O)N2CCC[C@@H](N(C)C(=O)NCc3cc4cc(Cl)ccc4[nH]3)C2)CC1` [Compound 92, (R)-3-((5-chloro-1H-indol-2-yl)methyl)-1-(1-(1-(methoxymethyl)cyclopropane-1-carbonyl)piperidin-3-yl)-1-methylurea], the IC50 was 8.99 µM.

Turning to `CN(C(=O)NCc1cc2cc(Cl)ccc2[nH]1)[C@@H]1CCCN(C(=O)C2CCCCO2)C1` (stereo partly drawn) [Compound 93, 3-((5-chloro-1H-indol-2-yl)methyl)-1-methyl-1-((3R)-1-(tetrahydro-2H-pyran-2-carbonyl)piperidin-3-yl)urea], the IC50 was 1.63 µM.

Regarding `CN(C(=O)NCc1cc2cc(Cl)ccc2[nH]1)[C@@H]1CCCN(C(=O)CN2CCCC2=O)C1` [Compound 94, (R)-3-((5-chloro-1H-indol-2-yl)methyl)-1-methyl-1-(1-(2-(2-oxopyrrolidin-1-yl)acetyl)piperidin-3-yl)urea], the half-inhibitory concentration (IC50) stood at 2.75 µM.

As for `CN(C(=O)NCc1cc2cc(Cl)ccc2[nH]1)[C@@H]1CCCN(C(=O)C2CCOCC2)C1` [Compound 95, (R)-3-((5-chloro-1H-indol-2-yl)methyl)-1-methyl-1-(1-(tetrahydro-2H-pyran-4-carbonyl)piperidin-3-yl)urea], the IC50 was found to be 3.24 µM.

In the case of `CC(=O)N1CC(C(=O)N2CCC[C@@H](N(C)C(=O)NCc3cc4cc(Cl)ccc4[nH]3)C2)C1` [Compound 96, (R)-1-(1-(1-acetylazetidine-3-carbonyl)piperidin-3-yl)-3-((5-chloro-1H-indol-2-yl)methyl)-1-methylurea], the half-inhibitory concentration (IC50) was found to be 0.933 µM.

For the molecule `CN(C(=O)NCc1cc2cc(Cl)ccc2[nH]1)[C@@H]1CCCN(C(=O)C2(O)CCCC2)C1` [Compound 97, (R)-3-((5-chloro-1H-indol-2-yl)methyl)-1-(1-(1-hydroxycyclopentane-1-carbonyl)piperidin-3-yl)-1-methylurea], the half-inhibitory concentration (IC50) was determined as 1.34 µM.

On to `CN(C(=O)NCc1cc2cc(Cl)ccc2[nH]1)[C@@H]1CCCN(C(=O)CC2(O)CCC2)C1` [Compound 98, (R)-3-((5-chloro-1H-indol-2-yl)methyl)-1-(1-(2-(1-hydroxycyclobutyl)acetyl)piperidin-3-yl)-1-methylurea], for which the IC50 came out at 3 µM.

On to `CN(C(=O)NCc1cc2cc(Cl)ccc2[nH]1)[C@@H]1CCCN(C(=O)C2CC(C)(O)C2)C1` (stereo partly drawn) [Compound 99, (R)-3-((5-chloro-1H-indol-2-yl)methyl)-1-(1-(3-hydroxy-3-methylcyclobutane-1-carbonyl)piperidin-3-yl)-1-methylurea], for which the IC50 is 0.745 µM.

For the molecule `CN(C(=O)NCc1cc2cc(Cl)ccc2[nH]1)[C@@H]1CCCN(C(=O)c2cccc3c2OCC3)C1` [Compound 100, (R)-3-((5-chloro-1H-indol-2-yl)methyl)-1-(1-(2,3-dihydrobenzofuran-7-carbonyl)piperidin-3-yl)-1-methylurea], the half-inhibitory concentration (IC50) was 0.38 µM.
